We go through two substances from US20050113256A1, “Methods of reducing the nicotine content of tobacco plants and tobacco plants obtained thereby” (priority 2003, published 2005).

The subject of assay [1] is tobacco leaves (Nicotiana tabacum). Nature of the assay: Treatment of individual tobacco leaves with test solutions, nicotine reduction. The assay is classed as in vivo. The settings on record: incubated for about 3 days.
The test system of assay [2] is transgenic tobacco plant leaves. The settings on record: transgenic tobacco leaves starting at 0.05 mg per gram; one GOX-leaf bruising treatment.
Source text: One group of the tobacco plants was exposed to H. zea neonates for a three day period during the growing season. A second group of the tobacco plants was exposed to H. zea neonates multiple times each for a three-day period during the growing season. A third group of tobacco plants was isolated from H. zea neonates for establishing a control. The leaves were harvested at the end of the growing season and the caterpillars were removed. The tobacco leaves were air dried and processed. Each of the dried tobacco leaves were treated and extracted with 10 ml of 25 mM sodium phosphate buffer at 30° C. for about 24 hours at constant agitation.
Assay [3] deals with parasitoids (wasps) (Cotesia glomerate). Nature of the assay: Attraction of parasitoids (wasps) to cabbage plants treated with β-glucosidase. The settings on record: amount of β-glucosidase in 25 μl. It counts as in vivo. From the text: We have discovered that generic defense mechanisms are elicited by herbivores such as caterpillars. In this example, a caterpillar (Pieris brassicae) attacked a cabbage plant releasing a defensive mixture of volatiles which attract parasitic wasps (Cotesia glomerate) which then attack and destroy the caterpillars. The caterpillar gut regurgitant contains enzymatic β-glucosidase which elicits the mixture of volatiles referred to above. Commercial β-glucosidase performs in a similar manner.
Cabbage (eight weeks old) and P. Brassicae (caterpillar) and parasitoids (wasps) were reared according to the method of Steinberg S. et al., Entomol. Exp. Appl 63 163-175 (1992). […] Ion chromatograms identified […], 1-hexanol, E-2-hexene 1-YL acetate as major components of the volatiles released by the cabbage plants. This experiment illustrates another specific example (compare to H. zea) of evolutionary arms race wherein an elicitor-antagonist biological system focuses on a defensive enzyme reaction.

Take glucose oxidase [Active GOX]: the “Reduction of Nicotine” value in assay [1] lay within 0.60 to 0.70 mg/g. Moreover, in assay [2], the “nicotine content after treatment” value is reported as 0.01 mg of nicotine/per gram.

Turning to β-glucosidase, the “attraction of parasitoids (wasps)” value in assay [3] is reported as “clearly resulted in the attraction of parasitoids”.
